Experimental data: patent publication US20250101023A1, “HETEROARYL DERIVATIVE AND USES THEREOF” (IUCF-HYU (INDUSTRY-UNIVERSITY COOPERATION FOUNDATION …, priority 2022, published 2025)

Assays:
[1] = Body weight in SK-Br3 xenograft model; format: in vivo, mouse; settings: 20 mg/kg, i.p. twice a week
Procedure: A mouse efficacy experiment was conducted after obtaining approval from the Laboratory Animal Ethics Committee of GenNBio (Review No.: GN-IACUC-Research 22-02-07). SK-Br3 and HCC-1954 cells (1×10^6 cells each) mixed with Matrigel (BD Biosciences) were […] injected into 5-week-old female Balb/c nude mice (Orient Bio, Seongnam, Republic of Korea). After tumors reached a size of about 100 mm^3, the compound, trastuzumab (20 mg/kg), and the like were intraperitoneally injected into mice (n=8 per group)(vehicle: 8% DMSO, 4% Tween-80, 88% PBS). The tumor size was measured twice weekly for about 4 weeks and calculated as follows. Volume (mm^3)=(a×b^2)/2; “a”, maximum diameter; “b”, vertical diameter

HCC1954 cells = test: Breast cancer growth inhibitory activity (Cell-titer Glo, 72 h); format: cell-based; settings: Homo sapiens, read-out: HCC1954 GI50
Procedure: (§1) Breast cancer cells in a culture solution (100 μL volume/well, 2,500 SK-Br3 cells/well, 1,000 HCC-1954 cells/well) were seeded into a tissue culture-treated 96-well plate and cultured in a cell incubator for 24 hours. […] Cell-titer Glo™ reagent (50 μL of a 5-fold diluted solution, Promega) was added to each well, and luminescence signals were measured using an Envision™ plate reader (PerkinElmer, USA). Titration curve fitting and IC50 values were generated using Prism 7.0 s/w (GraphPad, San Diego, USA).

SK-Br3 cells = test: as above; format: cell-based; settings: Homo sapiens, SK-BR-3; read-out: SK-Br3 GI50
Procedure: as §1

CYP1A2 = CYP1A2 (Homo sapiens (Human), UniProt P05177); test: in vitro; format: in vitro ADME
Sequence of CYP1A2 (P05177 whole entry): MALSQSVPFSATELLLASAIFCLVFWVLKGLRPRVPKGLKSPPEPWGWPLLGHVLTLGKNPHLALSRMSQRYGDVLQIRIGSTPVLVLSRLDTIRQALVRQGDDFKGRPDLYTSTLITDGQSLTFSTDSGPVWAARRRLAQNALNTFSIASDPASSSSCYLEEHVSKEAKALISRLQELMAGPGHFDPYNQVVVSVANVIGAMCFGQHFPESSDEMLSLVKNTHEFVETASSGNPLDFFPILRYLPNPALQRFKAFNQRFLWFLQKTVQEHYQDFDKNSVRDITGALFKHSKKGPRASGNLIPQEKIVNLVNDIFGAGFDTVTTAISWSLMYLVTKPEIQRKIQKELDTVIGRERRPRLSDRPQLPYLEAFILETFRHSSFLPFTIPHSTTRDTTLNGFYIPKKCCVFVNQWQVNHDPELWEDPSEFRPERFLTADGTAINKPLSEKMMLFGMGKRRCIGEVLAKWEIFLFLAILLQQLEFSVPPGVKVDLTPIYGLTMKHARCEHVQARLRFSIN
Procedure: (§2) 5 derivatives were evaluated for in vitro metabolic stability in liver microsomes from three different species (human, dog, mouse) and for inhibitory activity against 5 representative cytochrome P450 enzymes (CYPs)(Table 3). In terms of liver microsomal stability, the 2′-pyridyl group is more suitable than the α-methyl-4′-pyridyl group as the terminal aromatic group at position 6, and the aminopyrimidyl group is better than the aminopyridyl group as a substituent at position 2.

[2] = system: Pol II CTD (Ser2) phosphorylation; test: Western blot, Pol II CTD Ser2 phosphorylation; format: cell-based; settings: SK-Br3 and HCC1954 cell lines, 40 and 200 nM, 2 hours
IRS1 and WNT1 = test: Western blot, CDK12 downstream gene expression; format: cell-based; settings: SK-Br3 and HCC1954 cell lines, 40 and 200 nM, 24 hours
cyclinK = test: Western blot, cyclinK degradation; format: cell-based; settings: SK-Br3 and HCC1954 cell lines, 40 and 200 nM, 2 hours
[3] = Liver microsomal metabolic stability; format: in vitro ADME
Procedure: as §2

CDK12/CyclinK = CDK12/CyclinK (Homo sapiens (Human), UniProt Q9NYV4); test: CDK12/cyclinK enzyme activity; format: biochemical; settings: in vitro
Sequence of CDK12/CyclinK (Q9NYV4 whole entry): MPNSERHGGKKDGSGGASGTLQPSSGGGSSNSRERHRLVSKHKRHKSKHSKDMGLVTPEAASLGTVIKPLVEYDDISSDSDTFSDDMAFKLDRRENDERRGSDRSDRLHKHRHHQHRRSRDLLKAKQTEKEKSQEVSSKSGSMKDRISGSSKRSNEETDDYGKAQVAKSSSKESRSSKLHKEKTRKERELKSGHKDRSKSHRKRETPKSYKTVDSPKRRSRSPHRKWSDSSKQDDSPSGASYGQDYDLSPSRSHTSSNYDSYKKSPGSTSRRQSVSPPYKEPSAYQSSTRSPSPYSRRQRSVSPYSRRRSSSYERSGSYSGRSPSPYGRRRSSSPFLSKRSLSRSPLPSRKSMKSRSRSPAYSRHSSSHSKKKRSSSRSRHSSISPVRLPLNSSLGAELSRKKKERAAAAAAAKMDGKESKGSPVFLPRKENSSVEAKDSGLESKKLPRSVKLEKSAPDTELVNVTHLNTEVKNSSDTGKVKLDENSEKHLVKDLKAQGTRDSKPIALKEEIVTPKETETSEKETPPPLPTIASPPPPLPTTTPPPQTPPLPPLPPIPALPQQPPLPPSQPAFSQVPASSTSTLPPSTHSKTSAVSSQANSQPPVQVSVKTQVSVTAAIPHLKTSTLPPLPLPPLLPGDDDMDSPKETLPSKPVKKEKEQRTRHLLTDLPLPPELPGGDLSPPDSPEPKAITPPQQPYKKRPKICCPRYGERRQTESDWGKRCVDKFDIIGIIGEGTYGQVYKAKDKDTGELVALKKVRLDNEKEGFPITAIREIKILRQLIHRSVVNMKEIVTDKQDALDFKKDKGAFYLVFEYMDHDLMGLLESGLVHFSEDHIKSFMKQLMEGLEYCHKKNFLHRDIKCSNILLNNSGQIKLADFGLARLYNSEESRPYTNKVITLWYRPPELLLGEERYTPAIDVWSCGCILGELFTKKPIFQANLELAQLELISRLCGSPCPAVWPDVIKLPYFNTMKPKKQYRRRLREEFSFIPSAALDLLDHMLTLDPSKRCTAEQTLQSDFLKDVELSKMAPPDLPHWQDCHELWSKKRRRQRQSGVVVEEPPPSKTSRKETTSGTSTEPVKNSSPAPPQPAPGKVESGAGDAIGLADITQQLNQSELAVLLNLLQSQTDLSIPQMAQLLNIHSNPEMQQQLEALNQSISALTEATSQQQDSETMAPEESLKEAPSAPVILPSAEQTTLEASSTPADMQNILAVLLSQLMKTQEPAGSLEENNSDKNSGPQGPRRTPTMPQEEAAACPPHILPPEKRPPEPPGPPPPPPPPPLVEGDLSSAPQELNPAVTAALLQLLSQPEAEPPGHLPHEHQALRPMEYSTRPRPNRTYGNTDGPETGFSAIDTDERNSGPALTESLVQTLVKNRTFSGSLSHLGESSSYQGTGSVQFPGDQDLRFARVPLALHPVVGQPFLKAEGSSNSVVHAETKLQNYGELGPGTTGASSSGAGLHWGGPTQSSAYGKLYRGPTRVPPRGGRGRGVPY
Sequence of CDK12/CyclinK (O75909 whole entry partner): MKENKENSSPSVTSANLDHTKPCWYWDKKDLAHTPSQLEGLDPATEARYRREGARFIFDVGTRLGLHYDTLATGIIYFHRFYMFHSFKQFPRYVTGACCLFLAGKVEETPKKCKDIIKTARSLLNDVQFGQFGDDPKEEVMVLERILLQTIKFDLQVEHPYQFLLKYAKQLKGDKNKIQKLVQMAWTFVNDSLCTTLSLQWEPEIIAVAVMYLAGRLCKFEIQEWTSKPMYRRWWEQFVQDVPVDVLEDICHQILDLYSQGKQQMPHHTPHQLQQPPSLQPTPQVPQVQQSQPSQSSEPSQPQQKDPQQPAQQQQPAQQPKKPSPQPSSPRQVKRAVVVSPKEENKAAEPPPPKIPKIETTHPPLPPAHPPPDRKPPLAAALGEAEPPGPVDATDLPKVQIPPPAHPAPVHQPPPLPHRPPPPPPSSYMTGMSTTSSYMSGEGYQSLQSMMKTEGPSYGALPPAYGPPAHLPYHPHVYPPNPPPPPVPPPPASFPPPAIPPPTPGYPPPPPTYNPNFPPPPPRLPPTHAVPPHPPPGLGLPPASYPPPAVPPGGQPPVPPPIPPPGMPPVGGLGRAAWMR

CYP2D6 = CYP2D6 (Homo sapiens (Human), UniProt P10635); test: CYP inhibitory activity; format: in vitro ADME; settings: read-out: CYP % activity at 10 μM concentration 2D6
Sequence of CYP2D6 (P10635 whole entry): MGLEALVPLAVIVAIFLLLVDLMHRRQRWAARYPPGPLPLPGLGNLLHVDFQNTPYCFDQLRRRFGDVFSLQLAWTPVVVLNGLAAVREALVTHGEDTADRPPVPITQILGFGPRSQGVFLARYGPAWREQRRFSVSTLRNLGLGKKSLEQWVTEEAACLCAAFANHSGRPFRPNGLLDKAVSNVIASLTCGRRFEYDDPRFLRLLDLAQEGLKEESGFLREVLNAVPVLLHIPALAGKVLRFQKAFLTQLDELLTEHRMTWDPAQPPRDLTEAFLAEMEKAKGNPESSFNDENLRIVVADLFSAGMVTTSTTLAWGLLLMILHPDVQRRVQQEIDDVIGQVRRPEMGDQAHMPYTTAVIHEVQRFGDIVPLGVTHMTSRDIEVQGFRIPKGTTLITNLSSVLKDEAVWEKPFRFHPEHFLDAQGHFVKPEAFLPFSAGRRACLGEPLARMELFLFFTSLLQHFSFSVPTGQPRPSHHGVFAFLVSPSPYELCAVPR
Procedure: as §2

CYP3A4 = CYP3A4 (Homo sapiens (Human), UniProt P08684); test: CYP inhibitory activity; format: in vitro ADME; settings: read-out: CYP % activity at 10 μM concentration 3A4
Sequence of CYP3A4 (P08684 whole entry): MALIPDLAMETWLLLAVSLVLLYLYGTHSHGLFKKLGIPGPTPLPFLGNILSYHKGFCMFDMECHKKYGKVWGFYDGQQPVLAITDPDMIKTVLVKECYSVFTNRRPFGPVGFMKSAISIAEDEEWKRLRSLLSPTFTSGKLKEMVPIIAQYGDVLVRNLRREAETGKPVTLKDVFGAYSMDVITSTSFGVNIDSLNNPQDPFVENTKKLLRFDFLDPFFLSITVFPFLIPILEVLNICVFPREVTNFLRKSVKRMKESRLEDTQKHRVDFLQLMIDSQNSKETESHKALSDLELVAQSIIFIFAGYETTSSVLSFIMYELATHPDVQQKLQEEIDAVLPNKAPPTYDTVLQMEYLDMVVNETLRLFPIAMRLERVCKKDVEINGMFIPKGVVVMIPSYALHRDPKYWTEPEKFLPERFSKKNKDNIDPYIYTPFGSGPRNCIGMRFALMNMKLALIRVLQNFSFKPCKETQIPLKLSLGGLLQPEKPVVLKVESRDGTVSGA
Procedure: as §2

CYP2C19 = CYP2C19 (Homo sapiens (Human), UniProt P33261); test: CYP inhibitory activity; format: in vitro ADME; settings: read-out: CYP % activity at 10 μM concentration 2C19
Sequence of CYP2C19 (P33261 whole entry): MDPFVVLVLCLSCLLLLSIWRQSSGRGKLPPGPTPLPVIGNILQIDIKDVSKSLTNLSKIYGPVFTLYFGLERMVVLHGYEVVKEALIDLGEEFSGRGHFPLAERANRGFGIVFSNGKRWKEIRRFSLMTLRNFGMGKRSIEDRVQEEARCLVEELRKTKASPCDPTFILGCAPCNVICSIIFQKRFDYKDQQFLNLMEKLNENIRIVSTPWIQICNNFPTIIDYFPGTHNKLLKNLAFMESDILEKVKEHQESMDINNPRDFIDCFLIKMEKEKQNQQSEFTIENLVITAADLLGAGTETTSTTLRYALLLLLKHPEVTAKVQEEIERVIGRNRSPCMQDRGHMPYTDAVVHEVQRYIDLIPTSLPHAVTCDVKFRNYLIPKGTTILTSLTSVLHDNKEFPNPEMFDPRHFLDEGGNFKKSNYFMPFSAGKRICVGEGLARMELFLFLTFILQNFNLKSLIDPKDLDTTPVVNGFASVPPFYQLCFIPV
Procedure: as §2

CYP2C9 = CYP2C9 (Homo sapiens (Human), UniProt P11712); test: CYP inhibitory activity; format: in vitro ADME; settings: read-out: CYP % activity at 10 μM concentration 2C9
Sequence of CYP2C9 (P11712 whole entry): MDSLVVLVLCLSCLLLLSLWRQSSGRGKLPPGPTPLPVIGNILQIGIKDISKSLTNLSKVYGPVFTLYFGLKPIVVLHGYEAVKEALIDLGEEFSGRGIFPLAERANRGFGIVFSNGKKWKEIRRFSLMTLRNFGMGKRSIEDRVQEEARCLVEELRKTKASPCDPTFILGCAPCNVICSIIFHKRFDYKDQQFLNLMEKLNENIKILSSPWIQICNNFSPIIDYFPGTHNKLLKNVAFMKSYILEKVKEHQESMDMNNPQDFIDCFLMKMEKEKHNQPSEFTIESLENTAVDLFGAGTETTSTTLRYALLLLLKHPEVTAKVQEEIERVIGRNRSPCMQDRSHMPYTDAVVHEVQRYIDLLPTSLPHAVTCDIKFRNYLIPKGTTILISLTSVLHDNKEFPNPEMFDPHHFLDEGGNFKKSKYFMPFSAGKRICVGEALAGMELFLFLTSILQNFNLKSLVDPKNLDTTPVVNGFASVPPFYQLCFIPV
Procedure: as §2

activity at 10 µM (CYP1A2) [%] | Liver microsomal metabolic stability (% remaining amount) Dog ([3]; dog liver microsomes) [%] | Liver microsomal metabolic stability (% remaining amount) Human ([3]; human liver microsomes) [%] | Liver microsomal metabolic stability (% remaining amount) Mouse ([3]; mouse liver microsomes) [%] | IC50 (CDK12/CyclinK) [µM] | activity at 10 µM (CYP2D6) [%] | activity at 10 µM (CYP3A4) [%] | activity at 10 µM (CYP2C19) [%] | activity at 10 µM (CYP2C9) [%] | Compound | mouse body weight [1] | GI50 (HCC1954 cells) [nM] | GI50 (SK-Br3 cells) [nM] | Pol II CTD (Ser2) phosphorylation [2] | Pol II CTD (Ser2) phosphorylation ([2]; listed as Compound 54) | expression of IRS1 and WNT1 (IRS1 and WNT1) | expression of IRS1 and WNT1 (IRS1 and WNT1; listed as Compound 54) | cyclinK degradation (cyclinK) | cyclinK degradation (cyclinK; listed as Compound 54)
 |  |  |  |  |  |  |  |  | CCc1cnn2c(NCc3ccc[n+]([O-])c3)cc(N3CCCC[C@H]3CCO)nc12 [Dinaciclib, reference compound] | toxicity with a decrease in body weight in mice | 12 | 12 |  |  |  |  |  | 
87.6 | 67.6 | 100 | 85.0 | 0.077 | 92.1 | 92.8 | 72.6 | 81.6 | CCn1cnc2c(NCc3ccc(-c4ccccn4)nc3)nc(-c3cnc(N)nc3)nc21 [Example 54, N-([2,2′-bipyridin]-5-ylmethyl)-2-(2-aminopyrimidin-5-yl)-9-ethyl-9H-purin-6-amine] |  |  |  | inhibited Pol II CTD (Ser2) phosphorylation | strong dose-dependent suppression of Pol II phosphorylation | inhibited the expression of IRS1 and WNT1 | strongly suppressed | induced cyclinK degradation | cyclinK levels were greatly suppressed in a dose-dependent manner
